Counter-ions that a name gives are not always drawn. Like-named read-outs stand apart in the source and are kept apart here.
How the values were obtained:
PknB = biological target: T1, PknB (Mycobacterium tuberculosis, UniProt P9WI81); test: biochemical; design: species or system M. tuberculosis; details: for Ki: read-out: Ki Values
T1 construct: made in house

[1] = test system: Mycobacterium tuberculosis H37Ra; test: Mycobacterium tuberculosis growth inhibition assay (microtiter dilution, resazurin reduction); type: cell-based; details: 7H9 broth, 9 days + 24 h resazurin, lowest concentration inhibiting resazurin reduction by >70%, several symbols in a cell = repeat determinations
Procedure, shortened: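 M. tuberculosis H37Ra at ~1×10^6 cells/mL in 7H9 broth plus 10% ADC, exposed to 2-fold serial dilutions (7 or 11 steps) at 37 °C for 9 days. Resazurin then added, fluorescence (492/595 nm) read at baseline and after 24 h; MIC = lowest concentration inhibiting resazurin reduction >70% versus DMSO.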

[2] = 3 nM PknB, 6 uM GarA, 3 μM ATP, 30 min, competitive tight-binding fit, several symbols in a cell = repeat determinations

T1 sequence (P9WI81 whole entry): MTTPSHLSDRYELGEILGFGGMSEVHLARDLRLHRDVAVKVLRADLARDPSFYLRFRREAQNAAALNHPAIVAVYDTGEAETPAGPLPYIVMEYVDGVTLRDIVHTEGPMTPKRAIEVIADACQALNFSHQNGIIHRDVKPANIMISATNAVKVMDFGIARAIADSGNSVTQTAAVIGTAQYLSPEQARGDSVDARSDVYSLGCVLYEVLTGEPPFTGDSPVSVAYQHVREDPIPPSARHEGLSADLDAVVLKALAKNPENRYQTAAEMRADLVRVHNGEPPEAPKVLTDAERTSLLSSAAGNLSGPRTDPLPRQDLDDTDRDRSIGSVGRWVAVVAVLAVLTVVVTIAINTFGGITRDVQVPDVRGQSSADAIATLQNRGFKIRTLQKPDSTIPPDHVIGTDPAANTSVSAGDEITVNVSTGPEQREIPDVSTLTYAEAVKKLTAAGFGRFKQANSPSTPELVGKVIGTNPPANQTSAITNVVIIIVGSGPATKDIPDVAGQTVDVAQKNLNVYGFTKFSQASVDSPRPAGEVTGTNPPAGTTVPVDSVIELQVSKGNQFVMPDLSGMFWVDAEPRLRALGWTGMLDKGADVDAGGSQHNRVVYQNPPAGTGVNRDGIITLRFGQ

| SMILES | Ki (PknB; [2]) [nM] | MIC values [1] | Ki Values (PknB) | Ki Values (PknB; [2]) |
| --- | --- | --- | --- | --- |
| Oc1ccc(-c2ncc(Cl)c(Nc3cc(C4CC4)[nH]n3)n2)cc1 [Compound 126, 4-[5-chloro-4-[(5-cyclopropyl-1H-pyrazol-3-yl)amino]-pyrimidin-2-yl]phenol] | 10 to 50 | B++, B+ | – | – |
| C#Cc1cnc(-c2ccc(Cl)c(C(N)=O)c2)nc1Nc1cc(C2CC2)n[nH]1 [Compound 128, 2-chloro-5-(4-(3-cyclopropyl-1H-pyrazol-5-ylamino)-5-ethynylpyrimidin-2-yl)benzamide] | 10 to 50 | B+, C | – | – |
| CN(CCO)S(=O)(=O)c1ccc(-c2ncc(Cl)c(Nc3cc(C4CC4)[nH]n3)n2)s1 [Compound 129, 5-(5-Chloro-4-(5-cyclopropyl-1H-pyrazol-3-ylamino)pyrimidin-2-yl)-N-(2-hydroxyethyl)-N-methylthiophene-2-sulfonamide] | 1 to 10 | B++ | – | – |
| CC(=O)NCc1ccc(-c2ncc(Cl)c(Nc3cc(C4CC4)n[nH]3)n2)s1 [Compound 136, N-((5-(5-chloro-4-(3-cyclopropyl-1H-pyrazol-5-ylamino)pyrimidin-2-yl)thiophen-2-yl)methyl)acetamide] | 10 to 50 | B+ | – | – |
| NCCNS(=O)(=O)c1cccc(-c2ncc(Cl)c(Nc3cc(C4CC4)[nH]n3)n2)c1 [Compound 138, N-(2-aminoethyl)-3-[5-chloro-4-[(5-cyclopropyl-1H-pyrazol-3-yl)amino]-pyrimidin-2-yl]-benzenesulfonamide] | 10 to 50 | B, C | – | – |
| O=S(=O)(NC1CC1)c1ccc(-c2ncc(Cl)c(Nc3cc(C4CC4)[nH]n3)n2)s1 [Compound 139, 5-[5-chloro-4-[(5-cyclopropyl-1H-pyrazol-3-yl)amino]-pyrimidin-2-yl]-N-cyclopropyl-thiophene-2-sulfonamide] | 10 to 50 | B+, C | – | – |
| NCc1ccc(-c2ncc(Cl)c(Nc3cc(C4CC4)n[nH]3)n2)s1 [Compound 141, 2-(5-(aminomethyl)thiophen-2-yl)-5-chloro-N-(3-cyclopropyl-1H-pyrazol-5-yl)pyrimidin-4-amine hydrochloride] | – | B, C, C | A, A, B** | – |
| Cc1cnc(-c2ccc([C@@H](C)O)s2)nc1Nc1cc(C2CC2)[nH]n1 [Compound 145, (R)-1-(5-(4-(5-cyclopropyl-1H-pyrazol-3-ylamino)-5-methylpyrimidin-2-yl)thiophen-2-yl)ethanol] | 50 to 100 | B++, B+ | – | – |
| Cc1cnc(-c2ccc([C@H](C)O)s2)nc1Nc1cc(C2CC2)[nH]n1 [Compound 146, (S)-1-(5-(4-(5-cyclopropyl-1H-pyrazol-3-ylamino)-5-methylpyrimidin-2-yl)thiophen-2-yl)ethanol] | – | B++ | – | A*, A** |
| O=S(=O)(NC1CCOCC1)c1ccc(-c2ncc(Cl)c(Nc3cc(C4CC4)[nH]n3)n2)s1 [Compound 148, 5-[5-chloro-4-[(5-cyclopropyl-1H-pyrazol-3-yl)amino]-pyrimidin-2-yl]-N-tetrahydropyran-4-yl-thiophene-2-sulfonamide] | – | B, C | – | A, B** |
| Cc1cnc(-c2ccc(S(=O)(=O)NC(C)(C)C)s2)nc1Nc1cc(C2CC2)n(C)n1 [Compound 149, 5-[4-[(5-cyclopropyl-1-methyl-pyrazol-3-yl)amino]-5-methyl-pyrimidin-2-yl]-N-tert-butyl-thiophene-2-sulfonamide] | > 4000 | B+ | – | – |
| NS(=O)(=O)c1ccc(-c2ncc(C(F)(F)F)c(Nc3cc(C4CC4)[nH]n3)n2)s1 [Compound 159, 5-(4-(5-cyclopropyl-1H-pyrazol-3-ylamino)-5-(trifluoromethyl)pyrimidin-2-yl)thiophene-2-sulfonamide] | 100 to 500 | B+ | – | – |
| C#Cc1cnc(-c2ccc(CN)s2)nc1Nc1cc(C2CC2)[nH]n1 [Compound 167, 2-(5-(aminomethyl)thiophen-2-yl)-N-(5-cyclopropyl-1H-pyrazol-3-yl)-5-ethynylpyrimidin-4-amine hydrochloride] | – | B++ | A, A, A, B** | – |
| CC(C)(C)NS(=O)(=O)c1ccc(-c2ncc(Br)c(Nc3cc(C4CC4)[nH]n3)n2)s1 [Compound 170, 5-[5-bromo-4-[(5-cyclopropyl-1H-pyrazol-3-yl)amino]-pyrimidin-2-yl]-N-tert-butyl-thiophene-2-sulfonamide] | – | B+ | – | A*, A |
| NS(=O)(=O)c1ccc(-c2ncc(CO)c(Nc3cc(C4CC4)n[nH]3)n2)s1 [Compound 171, 5-(4-(5-cyclopropyl-1H-pyrazol-3-ylamino)-5-(hydroxymethyl)pyrimidin-2-yl)thiophene-2-sulfonamide] | – | B++ | – | A, B**, B** |
| C#Cc1cnc(N2CC[C@@H](NC(=O)OC(C)(C)C)C2)nc1Nc1cc(C2CC2)n[nH]1 [Compound 173, tert-butyl [[1-[4-[(5-cyclopropyl-2H-pyrazol-3-yl)amino]-5-ethynyl-pyrimidin-2-yl]pyrrolidin-3-yl]amino]formate] | – | B+ | – | B, C |
| C#Cc1cnc(-c2ccc(C(C)(C)O)s2)nc1Nc1cc(C2CC2)[nH]n1 [Compound 180, 2-(5-(4-(5-Cyclopropyl-1H-pyrazol-3-ylamino)-5-ethynylpyrimidin-2-yl)thiophen-2-yl)propan-2-ol] | 10 to 50 | B++ | – | – |
| CCOC(=O)C(O)c1ccc(-c2ncc(Cl)c(Nc3cc(C4CC4)[nH]n3)n2)s1 (stereo not drawn) [Compound 191, Ethyl 2-(5-(5-chloro-4-(5-cyclopropyl-1H-pyrazol-3-ylamino)pyrimidin-2-yl)thiophen-2-yl)-2-hydroxyacetate] | – | B, C | – | A*, B** |
| C#Cc1cnc(-c2ccc(S(=O)(=O)NC(C)=O)s2)nc1Nc1cc(C2CC2)[nH]n1 [Compound 192, N-(5-(4-(5-cyclopropyl-1H-pyrazol-3-ylamino)-5-ethynylpyrimidin-2-yl)thiophen-2-ylsulfonyl)acetamide] | 100 to 500 | B, C | – | – |
| CC(C)(C)OC(=O)/N=C(\N)c1ccc(-c2ncc(Cl)c(Nc3cc(C4CC4)[nH]n3)n2)s1 [Compound 197, tert-butyl [[amino-[5-[5-chloro-4-[(5-cyclopropyl-1H-pyrazol-3-yl)amino]-pyrimidin-2-yl]-2-thienyl]-methylene]amino]formate] | 500 to 1000 | B+ | – | – |
| C#Cc1cnc(-c2ccc([C@H](C)O)s2)nc1Nc1cc(C2CC2)n[nH]1 [Compound 198, (S)-1-(5-(4-(3-cyclopropyl-1H-pyrazol-5-ylamino)-5-ethynylpyrimidin-2-yl)thiophen-2-yl)ethanol] | 1 to 10 | A, A, A, B++ | – | – |
| C#Cc1cnc(N2CCCC2C(=O)OC)nc1Nc1cc(C2CC2)n[nH]1 (stereo not drawn) [Compound 200, methyl 1-[4-[(5-cyclopropyl-2H-pyrazol-3-yl)amino]-5-ethynyl-pyrimidin-2-yl]pyrrolidine-2-carboxylate] | – | B, C | – | B, D, D |
| O=[N+]([O-])c1ccc(-c2ncc(Cl)c(Nc3cc(C4CC4)[nH]n3)n2)s1 [Compound 203, 5-Chloro-N-(5-cyclopropyl-1H-pyrazol-3-yl)-2-(5-nitrothiophen-2-yl)pyrimidin-4-amine] | 1 to 10 | A+, A | – | – |
| O=[N+]([O-])c1csc(-c2ncc(Cl)c(Nc3cc(C4CC4)[nH]n3)n2)c1 [Compound 204, 5-chloro-N-(5-cyclopropyl-1H-pyrazol-3-yl)-2-(4-nitrothiophen-2-yl)pyrimidin-4-amine] | 10 to 50 | B+ | – | – |
| [H]/N=C(\N)c1ccc(-c2ncc(Cl)c(Nc3cc(C4CC4)[nH]n3)n2)s1 [Compound 205, 5-(5-chloro-4-(5-cyclopropyl-1H-pyrazol-3-ylamino)pyrimidin-2-yl)thiophene-2-carboximidamide] | – | B, C | – | A, B** |
| C#Cc1cnc(-c2ccc([C@@H](C)O)s2)nc1Nc1cc(C2CC2)n[nH]1 [Compound 212, (R)-1-(5-(4-(3-cyclopropyl-1H-pyrazol-5-ylamino)-5-ethynylpyrimidin-2-yl)thiophen-2-yl)ethanol] | – | A, B++ | – | A**, A**, A* |
| C#Cc1cnc(-c2ccc([C@H](O)C(C)C)s2)nc1Nc1cc(C2CC2)n[nH]1 [Compound 214, 1-[5-[4-[(5-cyclopropyl-2H-pyrazol-3-yl)amino]-5-ethynyl-pyrimidin-2-yl]-2-thienyl]-2-methyl-propan-1-ol] | – | B++ | – | A**, A**, A* |
| C#Cc1cnc(-c2ccc([C@H](O)CCC)s2)nc1Nc1cc(C2CC2)n[nH]1 [Compound 215, 1-[5-[4-[(5-cyclopropyl-2H-pyrazol-3-yl)amino]-5-ethynyl-pyrimidin-2-yl]-2-thienyl]butan-1-ol] | – | B++ | – | A**, A**, A* |
| CC(C)(C)NS(=O)(=O)c1ccc(-c2ncc(C#CCO)c(Nc3cc(C4CC4)[nH]n3)n2)s1 [Compound 216, N-tert-butyl-5-(4-(5-cyclopropyl-1H-pyrazol-3-ylamino)-5-(3-hydroxyprop-1-ynyl)pyrimidin-2-yl)thiophene-2-sulfonamide] | 1000 to 2000 | B+ | – | – |
| O=[N+]([O-])c1ccc(-c2ncc(Cl)c(Nc3cc(C4CC4)[nH]n3)n2)o1 [Compound 222, 5-chloro-N-(5-cyclopropyl-1H-pyrazol-3-yl)-2-(5-nitrofuran-2-yl)pyrimidin-4-amine] | 1 to 10 | A+, A | – | – |
